According to PubChem BioAssay (NCI):
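Cultured in 96-well plates, cells were exposed to test compound for 48 hours across five concentrations. GI50 marks 50% less growth. TGI denotes the concentration required for complete inhibition of growth.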

Key:
Assay in all cases: growth of human tumour cells (NCI), 48 h
[1] = tested on: HCC-2998 colon
[2] = tested on: MOLT-4 leukemia
[3] = tested on: SR leukemia
[4] = tested on: NCI/ADR-RES ovarian
[5] = tested on: RPMI-8226 leukemia
[6] = tested on: COLO 205 colon
[7] = tested on: NCI-H226 lung
[8] = tested on: BT-549 breast
[9] = tested on: SN12C renal
[10] = tested on: OVCAR-3 ovarian
[11] = tested on: SW-620 colon
[12] = tested on: EKVX NSCLC
[13] = tested on: HCT-116 colon
[14] = tested on: A498 renal
[15] = tested on: CCRF-CEM leukemia
[16] = tested on: CAKI-1 renal
[17] = tested on: SNB-75 CNS
[18] = tested on: KM12 colon
[19] = tested on: HL-60(TB) leukemia
[20] = tested on: UACC-62 melanoma
[21] = tested on: LOX IMVI melanoma
[22] = tested on: T-47D breast
[23] = tested on: OVCAR-5 ovarian
[24] = tested on: SK-MEL-5 melanoma
[25] = tested on: K-562 leukemia
[26] = tested on: PC-3 prostate
[27] = tested on: SK-MEL-2 melanoma
[28] = tested on: ACHN renal
[29] = tested on: UO-31 renal
[30] = tested on: MALME-3M melanoma
[31] = tested on: NCI-H23 lung
[32] = tested on: RXF 393 renal
[33] = tested on: M14 melanoma
[34] = tested on: SNB-19 CNS
[35] = tested on: OVCAR-4 ovarian
[36] = tested on: U251 CNS
[37] = tested on: HT29 colon
[38] = tested on: NCI-H522 lung
[39] = tested on: HOP-92 NSCLC
[40] = tested on: UACC-257 melanoma
[41] = tested on: MDA-MB-231 breast
[42] = tested on: NCI-H460 lung
[43] = tested on: DU-145 prostate
[44] = tested on: OVCAR-8 ovarian
[45] = tested on: MCF7 breast
[46] = tested on: HOP-62 NSCLC
[47] = tested on: 786-0 renal
[48] = tested on: A549 NSCLC
[49] = tested on: SF-539 CNS
[50] = tested on: SF-268 CNS
[51] = tested on: TK-10 renal
[52] = tested on: SF-295 CNS
[53] = tested on: HS 578T breast
[54] = tested on: SK-OV-3 ovarian
[55] = tested on: HCT-15 colon
[56] = tested on: MDA-MB-435
[57] = tested on: SK-MEL-28 melanoma
[58] = tested on: IGROV1 ovarian

`COc1ccc2c(c1)C(=O)c1c-2c(OCCN(C)C)nc2cc(OC)c(OC)cc12` showed a GI50 [1] of 8.85 µM, a TGI [1] of 49.9 µM and a GI50 [2] of 0.197 µM. It also gave a TGI [2] of over 100 µM, a GI50 [3] of 1.22 µM and a TGI [3] of 14.4 µM. It also gave a GI50 [4] of 4.58 µM, a TGI [4] of 42.3 µM and a GI50 [5] of 1.26 µM. The TGI [5] was 5.23 µM, the GI50 [6] was 11.5 µM and the TGI [6] was over 100 µM. The GI50 [7] was 2.95 µM, the TGI [7] was 22.1 µM and the GI50 [8] was 26.5 µM. For the same molecule, the TGI [8] was over 100 µM, the GI50 [9] was 2.72 µM and the TGI [9] was over 100 µM. It also gave a GI50 [10] of 2.23 µM, a TGI [10] of 15.1 µM and a GI50 [11] of 0.476 µM. The TGI [11] was 16.9 µM, the GI50 [12] was 22.6 µM and the TGI [12] was over 100 µM. For the same molecule, the GI50 [13] was 1.08 µM, the TGI [13] was 19.6 µM and the GI50 [14] was 13.2 µM. The TGI [14] was 99.1 µM, the GI50 [15] was 0.0714 µM and the TGI [15] was 3.91 µM. The GI50 [16] was 3.68 µM, the TGI [16] was 31.6 µM and the GI50 [17] was 8.65 µM. For the same molecule, the TGI [17] was 26.1 µM, the GI50 [18] was 0.762 µM and the TGI [18] was 13.4 µM. The GI50 [19] was 51.6 µM, the TGI [19] was over 100 µM and the GI50 [20] was 51.5 µM. It also gave a TGI [20] of over 100 µM, a GI50 [21] of 1.01 µM and a TGI [21] of 12.3 µM. For the same molecule, the GI50 [22] was over 100 µM, the TGI [22] was over 100 µM and the GI50 [23] was 23.7 µM. For the same molecule, the TGI [23] was 55.9 µM, the GI50 [24] was 32.1 µM and the TGI [24] was over 100 µM. It also gave a GI50 [25] of 5.04 µM, a TGI [25] of 30.9 µM and a GI50 [26] of 3.76 µM. It also gave a TGI [26] of 65.9 µM, a GI50 [27] of over 100 µM and a TGI [27] of over 100 µM. The GI50 [28] was 5.21 µM, the TGI [28] was 19.3 µM and the GI50 [29] was 0.658 µM. For the same molecule, the TGI [29] was 9.37 µM, the GI50 [30] was 12.1 µM and the TGI [30] was 28.3 µM. For the same molecule, the GI50 [31] was 9.32 µM, the TGI [31] was 22.9 µM and the GI50 [32] was 4.48 µM. For the same molecule, the TGI [32] was 18.6 µM, the GI50 [33] was 18.5 µM and the TGI [33] was 61.6 µM. For the same molecule, the GI50 [34] was 2.28 µM, the TGI [34] was 31.5 µM and the GI50 [35] was 2.81 µM. The TGI [35] was over 100 µM, the GI50 [36] was 3.08 µM and the TGI [36] was 19.1 µM. For the same molecule, the GI50 [37] was 1.76 µM, the TGI [37] was 18.1 µM and the GI50 [38] was 10.6 µM. It also gave a TGI [38] of over 100 µM, a GI50 [39] of 3.22 µM and a TGI [39] of 19.6 µM. It also gave a GI50 [40] of over 100 µM, a TGI [40] of over 100 µM and a GI50 [41] of 10.1 µM. For the same molecule, the TGI [41] was 22.1 µM, the GI50 [42] was 1.22 µM and the TGI [42] was 15.3 µM. It also gave a GI50 [43] of 2.93 µM, a TGI [43] of 34.7 µM and a GI50 [44] of 1.62 µM. The TGI [44] was over 100 µM, the GI50 [45] was 0.271 µM and the TGI [45] was 14.9 µM. It also gave a GI50 [46] of 1.32 µM, a TGI [46] of 32 µM and a GI50 [47] of 13 µM. It also gave a TGI [47] of 27.2 µM, a GI50 [48] of 4.2 µM and a TGI [48] of 21.5 µM. It also gave a GI50 [49] of 10.6 µM, a TGI [49] of 24.9 µM and a GI50 [50] of 0.731 µM. It also gave a TGI [50] of 16.3 µM, a GI50 [51] of 13.9 µM and a TGI [51] of 27.5 µM. It also gave a GI50 [52] of 0.0293 µM, a TGI [52] of 0.21 µM and a GI50 [53] of 12.8 µM. The TGI [53] was 35.7 µM, the GI50 [54] was 18.9 µM and the TGI [54] was over 100 µM. It also gave a GI50 [55] of 9.67 µM, a TGI [55] of 23.6 µM and a GI50 [56] of 5.3 µM. It also gave a TGI [56] of over 100 µM, a GI50 [57] of 18.9 µM and a TGI [57] of 35.4 µM.
`COc1ccc2c(c1OC)O/C(=C\c1ncc([N+](=O)[O-])n1C)C2=O` showed a GI50 [1] of 2.16 µM, a TGI [1] of 4.73 µM and a GI50 [2] of 0.266 µM. For the same molecule, the GI50 [3] was 0.103 µM, the GI50 [4] was 1.72 µM and the TGI [4] was 7.87 µM. It also gave a GI50 [5] of 3.07 µM, a TGI [5] of 16.4 µM and a GI50 [6] of 1.16 µM. The TGI [6] was 2.86 µM, the GI50 [7] was 7.29 µM and the TGI [7] was 50.8 µM. The GI50 [8] was 1.77 µM, the TGI [8] was 4.46 µM and the GI50 [9] was 1.78 µM. For the same molecule, the TGI [9] was 8.83 µM, the GI50 [10] was 1.6 µM and the TGI [10] was 6.16 µM. For the same molecule, the GI50 [11] was 0.385 µM, the GI50 [13] was 0.455 µM and the TGI [13] was 3.68 µM. For the same molecule, the GI50 [14] was 3.32 µM, the TGI [14] was 10.4 µM and the GI50 [15] was 0.297 µM. For the same molecule, the TGI [15] was 2.83 µM, the GI50 [16] was 0.376 µM and the TGI [16] was 2.46 µM. For the same molecule, the GI50 [17] was 2.14 µM, the TGI [17] was 6.85 µM and the GI50 [18] was 2.79 µM. For the same molecule, the TGI [18] was 10.3 µM, the GI50 [19] was 0.834 µM and the GI50 [20] was 1.49 µM. It also gave a TGI [20] of 3.36 µM, a GI50 [21] of 0.482 µM and a TGI [21] of 2.04 µM. For the same molecule, the GI50 [22] was over 70.9 µM, the TGI [22] was over 100 µM and the GI50 [23] was 2.82 µM. It also gave a TGI [23] of 12.5 µM, a GI50 [24] of 0.905 µM and a TGI [24] of 2.35 µM. For the same molecule, the GI50 [25] was 2.12 µM, the TGI [25] was 7.99 µM and the GI50 [26] was 3.76 µM. It also gave a TGI [26] of over 29.4 µM, a GI50 [27] of 0.681 µM and a TGI [27] of 1.72 µM. The GI50 [28] was 0.342 µM, the TGI [28] was 1.46 µM and the GI50 [29] was 0.957 µM. It also gave a TGI [29] of 4.39 µM, a GI50 [30] of 1.15 µM and a TGI [30] of 3.53 µM. It also gave a GI50 [31] of 1.3 µM, a TGI [31] of 5.6 µM and a GI50 [32] of 0.774 µM. The TGI [32] was 2.27 µM, the GI50 [33] was 0.591 µM and the TGI [33] was 2.52 µM. It also gave a GI50 [34] of 3.69 µM, a TGI [34] of 23.1 µM and a GI50 [35] of 5.95 µM. The TGI [35] was over 75.2 µM, the GI50 [36] was 2.95 µM and the TGI [36] was 13.9 µM. It also gave a GI50 [37] of 0.836 µM, a TGI [37] of 5.02 µM and a GI50 [38] of 1.36 µM. For the same molecule, the TGI [38] was 3.48 µM, the GI50 [39] was 1.45 µM and the TGI [39] was 4.86 µM. The GI50 [40] was 0.788 µM, the TGI [40] was 2.67 µM and the GI50 [41] was 1.37 µM. For the same molecule, the TGI [41] was 5.32 µM, the GI50 [42] was 0.925 µM and the TGI [42] was 4.83 µM. For the same molecule, the GI50 [43] was 1.42 µM, the TGI [43] was 6.27 µM and the GI50 [44] was 0.639 µM. The TGI [44] was 3.66 µM, the GI50 [45] was 2.06 µM and the TGI [45] was over 27.8 µM. It also gave a GI50 [46] of 3.67 µM, a TGI [46] of 17.4 µM and a GI50 [47] of 1.95 µM. The TGI [47] was 5.17 µM, the GI50 [48] was 2.59 µM and the TGI [48] was 12.1 µM. The GI50 [49] was 3.1 µM, the TGI [49] was 10.2 µM and the GI50 [50] was 1.36 µM. For the same molecule, the TGI [50] was 6.39 µM, the GI50 [51] was 3.26 µM and the TGI [51] was over 24.1 µM. For the same molecule, the GI50 [52] was 3.13 µM, the TGI [52] was 21.7 µM and the GI50 [53] was 2.15 µM. It also gave a TGI [53] of over 22.8 µM, a GI50 [54] of 2.71 µM and a TGI [54] of 9.1 µM. The GI50 [58] was 1.36 µM, the TGI [58] was 9.46 µM and the GI50 [55] was 0.487 µM. It also gave a TGI [55] of 3.61 µM, a GI50 [56] of 0.277 µM and a TGI [56] of 1.11 µM. For the same molecule, the GI50 [57] was 0.623 µM and the TGI [57] was 3.43 µM.
